Literature values in PubChem BioAssay AID1259409 (Chemical Carcinogenesis Research Information System (CCRIS), 2018).

Test system: rodent chemically induced tumor inhibition, incidence and multiplicity
Experiment: CCRIS tumor inhibitor studies

CC/C=C\C/C=C\C/C=C\CCCCCCCC(=O)O
tumour outcome (control, treated, inhibition, significance) (Carcinogen: 7,12-DIMETHYLBENZ[A]ANTHRACENE, 57-97-6, Dose [Inhibitor]: 0, 16 NMOL IN 0.1 ML ACETONE 2/WK FOR 20 WK APPLIED 40 MIN PRIOR TO EACH PROMOTER DOSE (STUDY DURATION: 21 WK), Route [Inhibitor]: DERMAL, Species: MOUSE, Strain/Sex: ICR/FEMALE, Target Tissue: Type of Lesion: SKIN: TUMOR, Dose [Carcinogen]: 0.19 UMOL IN 0.1 ML ACETONE ONCE, Promoter: 12-O-TETRADECANOYLPHORBOL-13-ACETATE, 16561-29-8): 87%, 80%, 8%, not significant
tumour outcome (control, treated, inhibition, significance) (Carcinogen: 7,12-DIMETHYLBENZ[A]ANTHRACENE, 57-97-6, Dose [Inhibitor]: 0, 160 NMOL IN 0.1 ML ACETONE 2/WK FOR 20 WK APPLIED 40 MIN PRIOR TO EACH PROMOTER DOSE (STUDY DURATION: 21 WK), Route [Inhibitor]: DERMAL, Species: MOUSE, Strain/Sex: ICR/FEMALE, Target Tissue: Type of Lesion: SKIN: TUMOR, Dose [Carcinogen]: 0.19 UMOL IN 0.1 ML ACETONE ONCE, Promoter: 12-O-TETRADECANOYLPHORBOL-13-ACETATE, 16561-29-8): 87%, 47%, 46%, p<0.005

CC(C(=O)O)c1cccc(C(=O)c2ccccc2)c1 (stereo not drawn)
tumour outcome (control, treated, inhibition, significance) (Carcinogen: AZOXYMETHANE, 25843-45-2, Dose [Inhibitor]: 0, 100 PPM IN DIET BEGINNING 1 WK PRIOR TO CARCINOGEN TREATMENT FOR DURATION OF STUDY (STUDY DURATION: 54 WK), Route [Inhibitor]: ORAL, Species: RAT, Strain/Sex: F344/MALE, Target Tissue: Type of Lesion: COLON: ADENOCARCINOMA, Dose [Carcinogen]: 15 MG/KG/BW 1/WK FOR 2 WK, Promoter: NONE USED): 58%, 56%, 3%, not calculated
tumour outcome (control, treated, inhibition, significance) (Carcinogen: AZOXYMETHANE, 25843-45-2, Dose [Inhibitor]: 0, 100 PPM IN DIET BEGINNING 1 WK TO CARCINOGEN TREATMENT FOR DURATION OF STUDY (STUDY DURATION: 54 WK), Route [Inhibitor]: ORAL, Species: RAT, Strain/Sex: F344/MALE, Target Tissue: Type of Lesion: COLON: ADENOMA, Dose [Carcinogen]: 15 MG/KG/BW 1/WK FOR 2 WK, Promoter: NONE USED): 6%, 3%, 50%, not calculated
tumour outcome (control, treated, inhibition, significance) (Carcinogen: AZOXYMETHANE, 25843-45-2, Dose [Inhibitor]: 0, 200 PPM IN DIET BEGINNING 1 WK PRIOR TO CARCINOGEN TREATMENT FOR DURATION OF STUDY (STUDY DURATION: 54 WK), Route [Inhibitor]: ORAL, Species: RAT, Strain/Sex: F344/MALE, Target Tissue: Type of Lesion: COLON: ADENOCARCINOMA, Dose [Carcinogen]: 15 MG/KG/BW 1/WK FOR 2 WK, Promoter: NONE USED): 58%, 28%, 52%, p<0.01
tumour outcome (control, treated, inhibition, significance) (Carcinogen: AZOXYMETHANE, 25843-45-2, Dose [Inhibitor]: 0, 200 PPM IN DIET BEGINNING 1 WK PRIOR TO CARCINOGEN TREATMENT FOR DURATION OF STUDY (STUDY DURATION: 54 WK), Route [Inhibitor]: ORAL, Species: RAT, Strain/Sex: F344/MALE, Target Tissue: Type of Lesion: COLON: ADENOMA, Dose [Carcinogen]: 15 MG/KG/BW 1/WK FOR 2 WK, Promoter: NONE USED): 6%, 6%, 0%, not significant
tumour outcome (control, treated, inhibition, significance) (Carcinogen: N-BUTYL-N-(4-HYDROXYBUTYL)NITROSAMINE, 3817-11-6, Dose [Inhibitor]: 0, 40 MG/KG DIET FOR 24 WK BEGINNING 1 WK PRIOR TO CARCINOGEN TREATMENT (STUDY DURATION: 24 WK), Route [Inhibitor]: ORAL, Species: MOUSE, Strain/Sex: BDF/MALE, Target Tissue: Type of Lesion: URINARY BLADDER: TRANSITIONAL CELL CARCINOMA, Dose [Carcinogen]: 7.5 MG 1/WK FOR 8 WK, Promoter: NONE USED): 22/75 (29%), 5/73 (7%), 76%, p<0.01
tumour outcome (control, treated, inhibition, significance) (Carcinogen: N-BUTYL-N-(4-HYDROXYBUTYL)NITROSAMINE, 3817-11-6, Dose [Inhibitor]: 0, 80 MG/KG DIET FOR 24 WK BEGINNING 1 WK PRIOR TO CARCINOGEN TREATMENT (STUDY DURATION: 24 WK), Route [Inhibitor]: ORAL, Species: MOUSE, Strain/Sex: BDF/MALE, Target Tissue: Type of Lesion: URINARY BLADDER: TRANSITIONAL CELL CARCINOMA, Dose [Carcinogen]: 7.5 MG 1/WK FOR 8 WK, Promoter: NONE USED): 22/75 (29%), 4/72 (6%), 79%, p<0.01

CCCC(C(=O)OCCN(CC)CC)(c1ccccc1)c1ccccc1
tumour outcome (control, treated, inhibition, significance) (Carcinogen: URETHANE, 51-79-6, Dose [Inhibitor]: 0, 50 MG/KG ONCE AT 24 HR AND 1 HR PRIOR TO CARCINOGEN DOSE THEN ONCE 24 HR AND 48 HR POST CARCINOGEN DOSE (STUDY DURATI, Route [Inhibitor]: INTRAPERITONEAL, Species: MOUSE, Strain/Sex: BALB/MALE, FEMALE, Target Tissue: Type of Lesion: LUNG: TUMOR, Dose [Carcinogen]: 0.5 G/KG IN 0.9% SALINE ONCE, Promoter: NONE USED): 94%, 91%, 3%, not significant

CCCCCCC[Se]C#N
tumour outcome (control, treated, inhibition, significance) (Carcinogen: 7,12-DIMETHYLBENZ[A]ANTHRACENE, 57-97-6, Dose [Inhibitor]: 0.1, 2 PPM (SELENIUM) IN DIET FOR 3 WK BEGINNING 2 WK PRIOR TO CARCINOGEN DOSE (STUDY DURATION: 25 WK), Route [Inhibitor]: ORAL, Species: RAT, Strain/Sex: SPRAGUE-DAWLEY/FEMALE, Target Tissue: Type of Lesion: MAMMARY GLAND: TUMOR, Dose [Carcinogen]: 10 MG ONCE, Promoter: NONE USED): 25/30 (83%), 11/30 (37%), 55%, p<0.05

NCCCCCC(=O)O
tumour outcome (control, treated, inhibition, significance) (Carcinogen: N-ETHYL-N-NITROSOUREA, 759-73-9, Dose [Inhibitor]: 0, 1000 MG/L IN DRINKING WATER FOR 12 MO ADMINISTERED TO CARCINOGEN-TREATED MOTHERS (STUDY DURATION: 12 MO), Route [Inhibitor]: ORAL, Species: RAT, Strain/Sex: ALBINO/MALE, FEMALE, Target Tissue: Type of Lesion: PERIPHERAL NERVES: TUMOR, Dose [Carcinogen]: 75 MG/KG BW ADMINISTERED INTRAPERITONEALLY TO MOTHERS 21 D POST CONCEPTION, Promoter: NONE USED): 24/63 (38%), 7/33 (21%), 45%, not significant
tumour outcome (control, treated, inhibition, significance) (Carcinogen: N-ETHYL-N-NITROSOUREA, 759-73-9, Dose [Inhibitor]: 0, 1000 MG/L IN DRINKING WATER FOR 12 MO ADMINISTERED TO OFFSPRING OF CARCINOGEN-TREATED MOTHERS (STUDY DURATION: 12 MO), Route [Inhibitor]: ORAL, Species: RAT, Strain/Sex: ALBINO/MALE, FEMALE, Target Tissue: Type of Lesion: BRAIN: TUMOR, Dose [Carcinogen]: 75 MG/KG BW ADMINISTERED INTRAPERITONEALLY TO MOTHERS 21 D POST CONCEPTION, Promoter: NONE USED): 53/63 (84%), 21/33 (64%), 24%, p<0.05
tumour outcome (control, treated, inhibition, significance) (Carcinogen: N-ETHYL-N-NITROSOUREA, 759-73-9, Dose [Inhibitor]: 0, 1000 MG/L IN DRINKING WATER FOR 12 MO ADMINISTERED TO OFFSPRING OF CARCINOGEN-TREATED MOTHERS (STUDY DURATION: 12 MO), Route [Inhibitor]: ORAL, Species: RAT, Strain/Sex: ALBINO/MALE, FEMALE, Target Tissue: Type of Lesion: KIDNEY: TUMOR, Dose [Carcinogen]: 75 MG/KG BW ADMINISTERED INTRAPERITONEALLY TO MOTHERS 21 D POST CONCEPTION, Promoter: NONE USED): 23/63 (37%), 7/33 (21%), 43%, not significant
tumour outcome (control, treated, inhibition, significance) (Carcinogen: N-ETHYL-N-NITROSOUREA, 759-73-9, Dose [Inhibitor]: 0, 1000 MG/L IN DRINKING WATER FOR 12 MO ADMINISTERED TO OFFSPRING OF CARCINOGEN-TREATED MOTHERS (STUDY DURATION: 12 MO), Route [Inhibitor]: ORAL, Species: RAT, Strain/Sex: ALBINO/MALE, FEMALE, Target Tissue: Type of Lesion: SPINAL CHORD: TUMOR, Dose [Carcinogen]: 75 MG/KG BW ADMINISTERED INTRAPERITONEALLY TO MOTHERS 21 D POST CONCEPTION, Promoter: NONE USED): 17/63 (27%), 15/33 (45%), -67%, not significant

CCCCc1cccs1
tumour outcome (control, treated, inhibition, significance) (Carcinogen: BENZO[A]PYRENE, 50-32-8, Dose [Inhibitor]: 0, 45 UMOL IN 0.2 ML COTTONSEED OIL 3/WK FOR 4 WK BEGINNING 1 DAY PRIOR TO FIRST CARCINOGEN DOSE AND TERMINATING 1 DAY A, Route [Inhibitor]: GAVAGE, Species: MOUSE, Strain/Sex: STRAIN-A/FEMALE, Target Tissue: Type of Lesion: FORESTOMACH: TUMOR, Dose [Carcinogen]: 1 MG 2/WK FOR 4 WK, Promoter: NONE USED): 14/17 (82%), 9/18 (50%), 39%, p<0.05
tumour outcome (control, treated, inhibition, significance) (Carcinogen: BENZO[A]PYRENE, 50-32-8, Dose [Inhibitor]: 0, 45 UMOL IN 0.2 ML COTTONSEED OIL 3/WK FOR 4 WK BEGINNING 1 DAY PRIOR TO FIRST CARCINOGEN DOSE AND TERMINATING 1 DAY A, Route [Inhibitor]: GAVAGE, Species: MOUSE, Strain/Sex: STRAIN-A/FEMALE, Target Tissue: Type of Lesion: LUNG: TUMOR, Dose [Carcinogen]: 1 MG 2/WK FOR 4 WK, Promoter: NONE USED): 17/17 (100%), 18/18 (100%), 0%, not significant
tumour outcome (control, treated, inhibition, significance) (Carcinogen: BENZO[A]PYRENE, 50-32-8, Dose [Inhibitor]: 0, 90 UMOL IN 0.2 ML COTTONSEED OIL 3/WK FOR 4 WK BEGINNING 1 DAY PRIOR TO FIRST CARCINOGEN DOSE AND TERMINATING 1 DAY A, Route [Inhibitor]: GAVAGE, Species: MOUSE, Strain/Sex: STRAIN-A/FEMALE, Target Tissue: Type of Lesion: FORESTOMACH: TUMOR, Dose [Carcinogen]: 1 MG 2/WK FOR 4 WK, Promoter: NONE USED): 14/17 (82%), 9/13 (69%), 16%, not significant
tumour outcome (control, treated, inhibition, significance) (Carcinogen: BENZO[A]PYRENE, 50-32-8, Dose [Inhibitor]: 0, 90 UMOL IN 0.2 ML COTTONSEED OIL 3/WK FOR 4 WK BEGINNING 1 DAY PRIOR TO FIRST CARCINOGEN DOSE AND TERMINATING 1 DAY A, Route [Inhibitor]: GAVAGE, Species: MOUSE, Strain/Sex: STRAIN-A/FEMALE, Target Tissue: Type of Lesion: LUNG: TUMOR, Dose [Carcinogen]: 1 MG 2/WK FOR 4 WK, Promoter: NONE USED): 17/17 (100%), 13/13 (100%), 0%, not significant
